From patent publication US8142805B1, “Implantable devices including fixed tissues” (Clemson University Research Foundation, priority 2006, dated 2012)

Test system: hyaluronidase
Experiment: Hyaluronic acid zymography of explant tissue capsules
Assay type: biochemical, rats
Conditions: developing buffer containing 1 M neomycin; HA gels
Method: Hyaluronic acid zymography studies were performed to study the inhibitory effect of neomycin on hyaluronidase. Tissue capsules from 3 weeks explanted treated aortic cusp samples were homogenized and used for gel zymography. Hyaluronic acid (HA) gels were made by incorporating 170 μg/ml of HA in 10% polyacrylamide gels. The tissue extracts were run at 90 Volts for 150 minutes. Protein molecular weight standards (10-150 kDa) were used to identify the molecular weights. Gels were incubated in the developing buffer (two for each sample type) and gels were also incubated in developing buffer containing 1 M neomycin. FIG. 8a and FIG. 8B show similar band intensities for active hyaluronidases in all groups. Thus, presence of more GAGs in Group 1 (Neomycin+EDC+GLUT) was not due to lower enzyme activity in this group as compared to other groups.

effect on hyaluronidase activity (zymography band density): inhibited enzyme activity
SMILES: NCC1OC(OC2C(CO)OC(OC3C(O)C(N)CC(N)C3OC3OC(CN)C(O)C(O)C3N)C2O)C(N)C(O)C1O (stereo not shown) [neomycin trisulfate]
